Test system: 695427-040-R-J1-PDC complex spheroids, viability percent T/C
Test: Anticancer human tumor 695427-040-R-J1-PDC patient-derived colon adenocarcinoma cell line growth inhibition [GQUAD]
Settings: for IC50: curve of first compound; for viability, T/C: stronger effect = lower value
Summary of the method: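 Viability of tumor cells grown as complex spheroids with endothelial and stromal cells, exposed to drug combinations. Top concentration at or near clinical Cmax (else 10 microM), diluted in half-log increments.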

[1] = second compound 0.0316 µM, first compound 0.0316 µM
[2] = second compound 0.0316 µM, first compound 0.1 µM
[3] = second compound 0.0316 µM, first compound 0.316 µM
[4] = second compound 0.0316 µM, first compound 1 µM
[5] = second compound 0.0316 µM, first compound 3.16 µM
[6] = second compound 0.0316 µM, first compound 10 µM
[7] = second compound 0.1 µM, first compound 0.0316 µM
[8] = second compound 0.1 µM, first compound 0.1 µM
[9] = second compound 0.1 µM, first compound 0.316 µM
[10] = second compound 0.1 µM, first compound 1 µM
[11] = second compound 0.1 µM, first compound 3.16 µM
[12] = second compound 0.1 µM, first compound 10 µM
[13] = second compound 0.316 µM, first compound 0.0316 µM
[14] = second compound 0.316 µM, first compound 0.1 µM
[15] = second compound 0.316 µM, first compound 0.316 µM
[16] = second compound 0.316 µM, first compound 1 µM
[17] = second compound 0.316 µM, first compound 3.16 µM
[18] = second compound 0.316 µM, first compound 10 µM
[19] = second compound 1 µM, first compound 0.0316 µM
[20] = second compound 1 µM, first compound 0.1 µM
[21] = second compound 1 µM, first compound 0.316 µM
[22] = second compound 1 µM, first compound 1 µM
[23] = second compound 1 µM, first compound 3.16 µM
[24] = second compound 1 µM, first compound 10 µM
[25] = second compound 3.16 µM, first compound 0.0316 µM
[26] = second compound 3.16 µM, first compound 0.1 µM
[27] = second compound 3.16 µM, first compound 0.316 µM
[28] = second compound 3.16 µM, first compound 1 µM
[29] = second compound 3.16 µM, first compound 3.16 µM
[30] = second compound 3.16 µM, first compound 10 µM
[31] = second compound 10 µM, first compound 0.0316 µM
[32] = second compound 10 µM, first compound 0.1 µM
[33] = second compound 10 µM, first compound 0.316 µM
[34] = second compound 10 µM, first compound 1 µM
[35] = second compound 10 µM, first compound 3.16 µM
[36] = second compound 10 µM, first compound 10 µM
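Also: spheroids exposed to compounds for seven days before readout.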

Work on `COc1ncnc(C2CC2)c1-c1ncc2cnn(Cc3ccc(-c4nc(C(F)(F)F)cn4C(C)C)cc3)c2n1` + Cc1cnc(CNC(=O)c2c(=O)c3ccc(N4CCCN(C)CC4)nc3n3c2sc2ccccc23)cn1 yielded an IC50 (second compound 0.0316 µM) of over 10000 nM, an IC50 (second compound 0.1 µM) of over 10000 nM and an IC50 (second compound 0.316 µM) of over 10000 nM. The IC50 (second compound 1 µM) was over 10000 nM, the IC50 (second compound 3.16 µM) was under 31.6 nM and the IC50 (second compound 10 µM) was under 31.6 nM. It also gave a viability, T/C [1] of 104%, a viability, T/C [2] of 75.9% and a viability, T/C [3] of 80.3%. For the same molecule, the viability, T/C [4] was 62.4%, the viability, T/C [5] was 83.7% and the viability, T/C [6] was 75.6%. The viability, T/C [7] was 90.4%, the viability, T/C [8] was 63.2% and the viability, T/C [9] was 71.9%. It also gave a viability, T/C [10] of 81.4%, a viability, T/C [11] of 72.1% and a viability, T/C [12] of 79.7%. It also gave a viability, T/C [13] of 66.3%, a viability, T/C [14] of 67.9% and a viability, T/C [15] of 58.5%. For the same molecule, the viability, T/C [16] was 65.2%, the viability, T/C [17] was 62.8% and the viability, T/C [18] was 69.2%. For the same molecule, the viability, T/C [19] was 56.1%, the viability, T/C [20] was 58.1% and the viability, T/C [21] was 70%. For the same molecule, the viability, T/C [22] was 64.5%, the viability, T/C [23] was 68.4% and the viability, T/C [24] was 73.9%. For the same molecule, the viability, T/C [25] was 34.3%, the viability, T/C [26] was 37.7% and the viability, T/C [27] was 42.8%. It also gave a viability, T/C [28] of 43%, a viability, T/C [29] of 53.2% and a viability, T/C [30] of 45.8%. The viability, T/C [31] was 18.6%, the viability, T/C [32] was 31.1% and the viability, T/C [33] was 43.1%. The viability, T/C [34] was 29.9%, the viability, T/C [35] was 34.6% and the viability, T/C [36] was 24.1%.
Molecule `Cc1[nH]c2ccccc2c1CCNCc1ccc(/C=C/C(=O)NO)cc1` + Cc1cnc(CNC(=O)c2c(=O)c3ccc(N4CCCN(C)CC4)nc3n3c2sc2ccccc23)cn1 has an IC50 (second compound 0.0316 µM) of over 316 nM, an IC50 (second compound 0.1 µM) of over 316 nM and an IC50 (second compound 0.316 µM) of over 316 nM. It also gave an IC50 (second compound 1 µM) of over 316 nM, an IC50 (second compound 3.16 µM) of under 0.999 nM and an IC50 (second compound 10 µM) of under 0.999 nM. The viability, T/C (second compound 0.0316 µM, first compound 0.000999 µM) was 108%, the viability, T/C (second compound 0.0316 µM, first compound 0.00316 µM) was 89.4% and the viability, T/C (second compound 0.0316 µM, first compound 0.00999 µM) was 105%. For the same molecule, the viability, T/C [1] was 87.8%, the viability, T/C (second compound 0.0316 µM, first compound 0.0999 µM) was 86.9% and the viability, T/C [3] was 80.5%. It also gave a viability, T/C (second compound 0.1 µM, first compound 0.000999 µM) of 90.7%, a viability, T/C (second compound 0.1 µM, first compound 0.00316 µM) of 84% and a viability, T/C (second compound 0.1 µM, first compound 0.00999 µM) of 84.3%. For the same molecule, the viability, T/C [7] was 80.5%, the viability, T/C (second compound 0.1 µM, first compound 0.0999 µM) was 94.8% and the viability, T/C [9] was 65.5%. It also gave a viability, T/C (second compound 0.316 µM, first compound 0.000999 µM) of 74.9%, a viability, T/C (second compound 0.316 µM, first compound 0.00316 µM) of 80.8% and a viability, T/C (second compound 0.316 µM, first compound 0.00999 µM) of 85.5%. For the same molecule, the viability, T/C [13] was 85%, the viability, T/C (second compound 0.316 µM, first compound 0.0999 µM) was 90.4% and the viability, T/C [15] was 58.1%. The viability, T/C (second compound 1 µM, first compound 0.000999 µM) was 50.9%, the viability, T/C (second compound 1 µM, first compound 0.00316 µM) was 73.3% and the viability, T/C (second compound 1 µM, first compound 0.00999 µM) was 69.2%. The viability, T/C [19] was 66.6%, the viability, T/C (second compound 1 µM, first compound 0.0999 µM) was 67.5% and the viability, T/C [21] was 39%. For the same molecule, the viability, T/C (second compound 3.16 µM, first compound 0.000999 µM) was 41.6%, the viability, T/C (second compound 3.16 µM, first compound 0.00316 µM) was 51.4% and the viability, T/C (second compound 3.16 µM, first compound 0.00999 µM) was 52.9%. It also gave a viability, T/C [25] of 46.1%, a viability, T/C (second compound 3.16 µM, first compound 0.0999 µM) of 43.1% and a viability, T/C [27] of 9.89%. For the same molecule, the viability, T/C (second compound 10 µM, first compound 0.000999 µM) was 21.6%, the viability, T/C (second compound 10 µM, first compound 0.00316 µM) was 31.5% and the viability, T/C (second compound 10 µM, first compound 0.00999 µM) was 32%. For the same molecule, the viability, T/C [31] was 31.1%, the viability, T/C (second compound 10 µM, first compound 0.0999 µM) was 14.5% and the viability, T/C [33] was 0.3%.
With `O=C(NO)c1cnc(N2CCN(S(=O)(=O)c3ccc4ccccc4c3)CC2)nc1` + Cc1cnc(CNC(=O)c2c(=O)c3ccc(N4CCCN(C)CC4)nc3n3c2sc2ccccc23)cn1 the IC50 (second compound 0.0316 µM) was 418 nM, the IC50 (second compound 0.1 µM) was 445 nM and the IC50 (second compound 0.316 µM) was 281 nM. For the same molecule, the IC50 (second compound 1 µM) was 172 nM, the IC50 (second compound 3.16 µM) was under 31.6 nM and the IC50 (second compound 10 µM) was under 31.6 nM. The viability, T/C [1] was 91.1%, the viability, T/C [2] was 78.5% and the viability, T/C [3] was 64.4%. For the same molecule, the viability, T/C [4] was 6.15%, the viability, T/C [5] was 0.22% and the viability, T/C [6] was 0.22%. The viability, T/C [7] was 87.2%, the viability, T/C [8] was 65.5% and the viability, T/C [9] was 68.3%. It also gave a viability, T/C [10] of 7.35%, a viability, T/C [11] of 0.34% and a viability, T/C [12] of 0.28%. It also gave a viability, T/C [13] of 85.3%, a viability, T/C [14] of 70.1% and a viability, T/C [15] of 49.8%. The viability, T/C [16] was 6.3%, the viability, T/C [17] was 0.18% and the viability, T/C [18] was 0.19%. The viability, T/C [19] was 56.4%, the viability, T/C [20] was 58.3% and the viability, T/C [21] was 41.7%. The viability, T/C [22] was 0.29%, the viability, T/C [23] was 0.1% and the viability, T/C [24] was 0.17%. The viability, T/C [25] was 48.4%, the viability, T/C [26] was 45.6% and the viability, T/C [27] was 23.1%. It also gave a viability, T/C [28] of 0.14%, a viability, T/C [29] of 0.11% and a viability, T/C [30] of 0.12%. For the same molecule, the viability, T/C [31] was 24.2%, the viability, T/C [32] was 13.8% and the viability, T/C [33] was 0.3%. The viability, T/C [34] was 0.15%, the viability, T/C [35] was 0.17% and the viability, T/C [36] was 0.18%.

— PubChem BioAssay AID2060492 (Molecular Pharmacology Branch, DTP, NCI, 2025)
